From patent US20220380341A1, “INHIBITORS OF HIV-1 NEF FOR THE TREATMENT OF HIV DISEASE” (priority 2018, published 2022)
Read-outs that look alike come from different tables or passages of the source.

Legend:
TZM-bl cell line = format: cell-based; details: human, 1 μM
In short: (§1)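 TZM-bl cells (HIV-1 LTR-luciferase) infected with HIV-1NL4-3 with compound at 1 μM; luciferase read 48 h later. Percent inhibition normalized to DMSO wild-type infection (0%) and Nef-defective HIV-1 infection (100% of Nef-dependent effect). Viability in uninfected TZM-bl cells by Cell Titer Blue.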

HIV-1 NefNL4-3 = HIV-1 NefNL4-3 (Human immunodeficiency virus type 1 group M subtype B, UniProt P03406, A33V/T15A/T51N/V11I); assay: Surface plasmon resonance binding to recombinant full-length Nef (NL4-3); details: for RU30/RUNef (extent of binding): response units at 30 μM relative to Nef immobilized on the SPR chip; for T, minutes (residence time): 2-step induced fit, T = 1/koff2
HIV-1 NL4-3 = assay: HIV-1 replication in normal donor PBMCs (p24 Gag AlphaLISA); format: cell-based; details: Table 1, 4 days, words (Not active, Borderline) where no bound is given
Description: FIG. 4. Inhibition of HIV-1 replication by compounds disclosed herein in PBMCs. Donor PBMCs were infected with HIV-1 in the presence of inhibitor concentrations ranging from 1 to 1,000 nM or the DMSO carrier solvent as a negative control (0.1% DMSO final). Replication was assessed by p24 Gag AlphaLISA (Perkin Elmer) […]. Each donor was also infected with Nef-defective HIV-1 to establish the baseline for Nef-dependent enhancement of replication in each culture. Cytotoxicity was assessed in uninfected PBMCs over the same incubation period using the CellTiter-Blue assay (Promega). Data were fit by non-linear regression analysis (GraphPad Prism v.7.04) to determine the IC50 and CC50 values shown.
The tables also show data for HIV-1 Replication in normal donor peripheral blood mononuclear cells (PBMCs), which is assay is conducted as follows:
Non-HLA-typed buffy coats (Source: Pittsburgh Central Blood Bank, #E3755) are received and processed within 24 hours of blood donation. PBMCs are isolated via rocking for RBC separation following 1:1 dilution with PBS, followed by Ficoll gradient centrifugation. The lymphocyte fraction is removed and washed several times for a final concentration of ˜150-300×10^6 cells per donor. Cells are activated for 3 days with 1-5 μg/mL PHA (Sigma) and 50 U/mL IL-2. Cells are plated at 750,000 cells/ml and viability is checked at day 3 using the Cell Titer Blue assay (Promega). If cells are >90% viable, then they are infected with HIV-1 NL4-3, wild-type or Δ-Nef mutant (input typically 30-500 pg/mL p24 capsid equivalents) in the presence or absence of Nef inhibitor analogs. IL-2 is included in the media at the time of infection. After 4 days, cells are lysed with 1% Triton X-100 for 1.5 h, checked for viability via Cell Titer Blue, and frozen/stored at −20° C. HIV-1 replication is assessed with a high-sensitivity HIV-1 p24 AlphaLISA assay (Perkin Elmer) in ½-volume 96-well plates, using one-half of the recommended assay volumes for all reagents (including samples). Assays are read on the BioTek Cytation5 instrument; readout is in AlphaUnits and replication in p24 pg/mL is determined using an HIV-1 p24 capsid protein standard included in the Alpha kit.

HIV-1NL4-3 = assay: HIV-1 infectivity assay in TZM-bl reporter cell line (LTR-luciferase, 48 h); format: cell-based; details: Human immunodeficiency virus 1, TZM-bl
In short: as §1

[1] = Nef NL4-3 Binding, SPR 2-state fitting KD, Table 1, 2-step induced-fit model
[2] = 48 h, Table 1, TZM-bl cells, 1 μM, 48 h, 100% = Nef-defective HIV-1, read-out: HIV-1 Infectivity % Inhibition Norm. to Δ-Nef @ 1 μM
[3] = read-out: Nef NL4-3 Binding, SPR 1:1 or 2-site fitting KD2, Table 1, 2-site fit, second component
[4] = 1.0 μM, TZM-bl reporter cell line, Table 4, read-out: % Infectivity Inhibition
[5] = KD, M, Table 4, SPR fit 2-step induced fit, KD = koff/kon × koff2/(koff2 + kon2)

For `Oc1c(CCc2ccc(F)cc2)c(-c2cccc(F)c2)nn1-c1nc2ccccc2[nH]1` [Compound I-110, 1-(1H-1,3-benzodiazol-2-yl)-3-(3-fluorophenyl)-4-[2-(4-fluorophenyl)ethyl]-1H-pyrazol-5-ol], which “Percent Viability @ 1 μM (TZM-bl cells)” value (TZM-bl cell line) is on record?
Its value is 88.4%.

And the Kd (HIV-1 NefNL4-3; Nef NL4-3 Binding, SPR 1:1 or 2-site fitting KD2, Table 1, 2-site fit, second component)?
The Kd was 2140 nM.

And the Kd (HIV-1 NefNL4-3; [1])?
Its Kd is 30.2 nM.

And the “HIV Replication PBMC IC50 vs. HIV NL4-3” value (HIV-1 NL4-3)?
The value was “Not active”.

And the inhibition at 1 µM (HIV-1NL4-3; [2])?
The inhibition at 1 µM was 84.9%.

For `Oc1c(CCc2ccc(F)cc2)c(-c2ccc(C(F)(F)F)cn2)nn1-c1nc2ccccc2[nH]1` [Compound I-119, 1-(1H-1,3-benzodiazol-2-yl)-4-[2-(4-fluorophenyl)ethyl]-3-[5-(trifluoromethyl)pyridin-2-yl]-1H-pyrazol-5-ol], which “% Cell Viability” value (TZM-bl cell line) is on record?
The value was 77.1%.

And the “Percent Viability @ 1 μM (TZM-bl cells)” value (TZM-bl cell line)?
Its value is 77.1%.

And the Kd (HIV-1 NefNL4-3)?
Its Kd is 0.0189 nM.

And the Kd (HIV-1 NefNL4-3; [3])?
Its Kd is 6830 nM.

What about the “RU30/RUNef (extent of binding)” value (HIV-1 NefNL4-3) of the same compound?
Its value is 7.52E- 03.

And the “HIV Replication PBMC IC50 vs. HIV NL4-3” value (HIV-1 NL4-3)?
The value was “Not active”.

What about the inhibition at 1 µM (HIV-1NL4-3; [4]) of the same compound?
Its inhibition at 1 µM is 80.7%.

What about the inhibition at 1 µM (HIV-1NL4-3; [2]) of the same compound?
The inhibition at 1 µM was 80.7%.

Which “% Cell Viability” value (TZM-bl cell line) does the source give for `Oc1c(CC2CCCC2)c(-c2ccc(C(F)(F)F)cc2)nn1-c1nc2ccccc2[nH]1` [Compound I-123, 1-(1H-1,3-benzodiazol-2-yl)-4-(cyclopentylmethyl)-3-[4-(trifluoromethyl)phenyl]-1H-pyrazol-5-ol] here?
Its value is 85.3%.

What about the “Percent Viability @ 1 μM (TZM-bl cells)” value (TZM-bl cell line) of the same compound?
Its value is 85.3%.

What about the Kd (HIV-1 NefNL4-3) of the same compound?
The Kd was 88.8 nM.

And the Kd (HIV-1 NefNL4-3; [5])?
Its Kd is 0.0936 nM.

What about the Kd (HIV-1 NefNL4-3; [1]) of the same compound?
The Kd was 0.0936 nM.

What about the “T, minutes (residence time)” value (HIV-1 NefNL4-3; Table 4) of the same compound?
The value was 3.79E + 05 minutes.

What about the Kd (HIV-1 NefNL4-3; [3]) of the same compound?
Its Kd is 87800 nM.

And the “RU30/RUNef (extent of binding)” value (HIV-1 NefNL4-3)?
Its value is 2.57E- 02.

And the “HIV Replication PBMC IC50 vs. HIV NL4-3” value (HIV-1 NL4-3)?
The value was “Not active”.

What about the inhibition at 1 µM (HIV-1NL4-3; [4]) of the same compound?
The inhibition at 1 µM was 96.1%.

What about the inhibition at 1 µM (HIV-1NL4-3; [2]) of the same compound?
The inhibition at 1 µM was 96.1%.

Which results are given for `Oc1c(CCc2ccc(F)cc2)c(C2CCC2)nn1-c1nc2ccccc2[nH]1` [Compound I-129, 1-(1H-1,3-benzodiazol-2-yl)-3-cyclobutyl-4-[2-(4-fluorophenyl)ethyl]-1H-pyrazol-5-ol]?
% Cell Viability (TZM-bl cell line): 99.3%; Percent Viability @ 1 μM (TZM-bl cells) (TZM-bl cell line): 99.3%; Kd (HIV-1 NefNL4-3): 2.38 nM; Kd (HIV-1 NefNL4-3; [5]): 0.0371 nM; Kd (HIV-1 NefNL4-3; [1]): 0.0371 nM; T, minutes (residence time) (HIV-1 NefNL4-3; Table 4): 5.19E + 05 minutes; Kd (HIV-1 NefNL4-3; [3]): 16800 nM; RU30/RUNef (extent of binding) (HIV-1 NefNL4-3): 1.28E- 02; IC50 (HIV-1 NL4-3; Human immunodeficiency virus 1, NL43, PBMC, 96 h): ≤ 10 nM; inhibition at 1 µM (HIV-1NL4-3; [4]): 60.9%; inhibition at 1 µM (HIV-1NL4-3; [2]): 60.9%

What does the source list for `Oc1c(CCc2ccc(F)cc2)c(-c2ccc3c(c2)OC(F)(F)O3)nn1-c1nc2ccccc2[nH]1` [Compound I-145, 1-(1H-1,3-benzodiazol-2-yl)-3-(2,2-difluoro-2H-1,3-benzodioxol-5-yl)-4-[2-(4-fluorophenyl)ethyl]-1H-pyrazol-5-ol]?
% Cell Viability (TZM-bl cell line): 98.2%; Percent Viability @ 1 μM (TZM-bl cells) (TZM-bl cell line): 98.2%; RU30/RUNef (extent of binding) (HIV-1 NefNL4-3): 4.38E- 03; HIV Replication PBMC IC50 vs. HIV NL4-3 (HIV-1 NL4-3): Not active; inhibition at 1 µM (HIV-1NL4-3; [4]): 0%; inhibition at 1 µM (HIV-1NL4-3; [2]): -11.7%

How did the “% Cell Viability” value (TZM-bl cell line) turn out when `Oc1c(CCc2ccc(F)cc2)c(-c2ccc(C(F)(F)F)cc2)nn1-c1nc2ccc(Cl)cc2[nH]1` [Compound I-161, 1-(6-chloro-1H-1,3-benzodiazol-2-yl)-4-[2-(4-fluorophenyl)ethyl]-3-[4-(trifluoromethyl)phenyl]-1H-pyrazol-5-ol] was run?
Its value is 89.9%.

And the “Percent Viability @ 1 μM (TZM-bl cells)” value (TZM-bl cell line)?
The value was 89.9%.

And the “RU30/RUNef (extent of binding)” value (HIV-1 NefNL4-3)?
Its value is 1.44E- 02.

And the “HIV Replication PBMC IC50 vs. HIV NL4-3” value (HIV-1 NL4-3)?
Its value is “Not active”.

And the inhibition at 1 µM (HIV-1NL4-3; [4])?
The inhibition at 1 µM was 38.7%.

What about the inhibition at 1 µM (HIV-1NL4-3; [2]) of the same compound?
Its inhibition at 1 µM is 38.7%.
